Measurements reported in the supplement of paper PMC10307832.

Columns and labels:
Experiment in all cases: relative viability (nuclei count vs DMSO), 5 days (fraction); higher = more cells survive
[1] = compound: CC1CC(=O)N(C2=CN=C(N=C2N1C3CCCC3)NC4=C(C=C(C=C4)C(=O)NC5CCN(CC5)C)OC)C [NPK76-II-72-1] + N=C(N)NC(=N)NCCc1ccccc1 [Phenformin] (partner 250 µM)
In short: (§1)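 Relative viability was taken as the ratio of nuclei in treated wells to nuclei in vehicle wells. Lung cancer cell lines in 1536-well plates received compounds by pin tool one day after seeding, either one drug alone or a fixed anchor-drug dose plus five library-drug doses (not always all listed) in √10 steps. Nuclei were counted on 4× images after 5 days of treatment, and values are medians of duplicate plates.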

BI-2536 + Alpelisib = compound: CC[C@@H]1C(=O)N(C)c2cnc(Nc3ccc(C(=O)NC4CCN(C)CC4)cc3OC)nc2N1C1CCCC1 [BI-2536] + Cc1nc(NC(=O)N2CCC[C@H]2C(N)=O)sc1-c1ccnc(C(C)(C)C(F)(F)F)c1 [Alpelisib] (partner 2 µM)
In short: as §1

[2] = compound: CC1CC(=O)N(C2=CN=C(N=C2N1C3CCCC3)NC4=C(C=C(C=C4)C(=O)NC5CCN(CC5)C)OC)C [NPK76-II-72-1] + C[C@]1(O)C[C@@H](c2nc(-c3ccc4ccc(-c5ccccc5)nc4c3)c3c(N)nccn32)C1 [Linsitinib] (partner 1 µM)
In short: as §1

[3] = compound: CC1CC(=O)N(C2=CN=C(N=C2N1C3CCCC3)NC4=C(C=C(C=C4)C(=O)NC5CCN(CC5)C)OC)C [NPK76-II-72-1] + O=C(CCCCCCC(=O)Nc1ccccc1)NO [Vorinostat] (partner 1 µM)
In short: as §1

UMC-11
relative viability ([1]; first compound 0.01 µM): 0.318
relative viability ([1]; first compound 0.03162 µM): 0.32
relative viability ([1]; first compound 0.1 µM): 0.346
relative viability ([1]; first compound 1 µM): 0.344
relative viability (BI-2536 + Alpelisib; first compound 0.01 µM): 0.978
relative viability (BI-2536 + Alpelisib; first compound 0.03162 µM): 0.733
relative viability (BI-2536 + Alpelisib; first compound 0.1 µM): 0.312
relative viability (BI-2536 + Alpelisib; first compound 0.3162 µM): 0.152
relative viability (BI-2536 + Alpelisib; first compound 1 µM): 0.126
relative viability ([2]; first compound 0.01 µM): 1
relative viability ([2]; first compound 0.03162 µM): 1.08
relative viability ([2]; first compound 0.1 µM): 1
relative viability ([2]; first compound 0.3162 µM): 0.927
relative viability ([2]; first compound 1 µM): 0.976
relative viability ([3]; first compound 0.01 µM): 0.358
relative viability ([3]; first compound 0.03162 µM): 0.365
relative viability ([3]; first compound 0.1 µM): 0.334
relative viability ([3]; first compound 0.3162 µM): 0.392
relative viability ([3]; first compound 1 µM): 0.309
